Several values for one entry are separate records, joined by “and”; a condition that tells them apart may be missing. Identical values can stand only once. Like-named read-outs stand apart in the source and are kept apart here.
How the values were obtained:
[1] = molecular target: T1, prostaglandin G/H synthase-2 (Ovis aries, UniProt P79208); test: Inhibition of prostaglandin G/H synthase-2 (conversion of [14C]arachidonic acid to products); type: biochemical; details: enzyme purified from sheep placenta, 15 min preincubation, pH 7.4, room temperature
T1 construct: purified from sheep placenta; from tissue; host or cells: sheep placenta
T1 sequence (P79208 17-603): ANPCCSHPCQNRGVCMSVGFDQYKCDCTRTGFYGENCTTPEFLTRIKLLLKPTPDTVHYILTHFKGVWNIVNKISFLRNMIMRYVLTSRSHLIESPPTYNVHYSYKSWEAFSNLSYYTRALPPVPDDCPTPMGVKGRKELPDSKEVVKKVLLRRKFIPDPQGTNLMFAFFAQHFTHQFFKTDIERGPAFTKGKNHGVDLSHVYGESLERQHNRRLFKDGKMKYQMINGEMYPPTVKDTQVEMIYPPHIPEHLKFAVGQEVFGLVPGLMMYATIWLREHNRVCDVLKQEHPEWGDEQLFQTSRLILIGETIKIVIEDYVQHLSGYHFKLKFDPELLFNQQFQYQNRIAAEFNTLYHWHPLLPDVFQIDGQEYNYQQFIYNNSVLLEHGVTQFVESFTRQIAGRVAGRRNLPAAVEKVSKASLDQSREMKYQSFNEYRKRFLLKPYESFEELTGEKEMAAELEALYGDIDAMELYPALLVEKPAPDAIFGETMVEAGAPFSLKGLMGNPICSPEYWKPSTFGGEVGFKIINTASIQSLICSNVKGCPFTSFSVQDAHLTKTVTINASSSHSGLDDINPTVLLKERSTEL
Description: (§1) The compounds of the present invention were evaluated as selective inhibitors of prostaglandin G/H synthase-2 by determining the effect of the compounds on the conversion of [^14 C]arachidonic acid to products by prostaglandin G/H synthase-2 purified from sheep placenta. This enzyme shares immunoreactivity and sequence homology with human prostaglandin G/H synthase-2. The effects of the compounds on prostaglandin G/H synthase-1 purified from ram seminal vesicles is used for the evaluation of inhibitory selectivity.
(§2) Each compound was preincubated for 15 minutes at room temperature in 50 mM sodium phosphate buffer at pH 7.4 containing 3.33 mM reduced glutathione, 2.67 mM epinephrine and 6.6% dimethylsulfoxide with sufficient enzyme to cause approximately 30% conversion of substrate to products after 15 minutes incubation in the absence of inhibitory compounds. Reactions with 24 μM arachidonic acid are initiated by the addition of a one third volume of 50 mM sodium phosphate buffer, pH 7.4, containing 3.33 mM reduced glutathione, 2.67 mM epinephrineβ and [^14 C] arachidonic acid.
(§3) Reactions were terminated after 15 minutes incubation at room temperature by the addition of 1.875 volumes of methanol:acetic acid (100:0.1) containing 0.5 mg/ml triphenylphosphine. The reaction products were separated from the unconverted substrate by high performance liquid chromatography and quantified by on-line radiometric detection. Compound effects were computed as percent inhibition of blank-adjusted mean product formation in uninhibited incubations.

[2] = molecular target: T2, prostaglandin G/H synthase-1 (Ovis aries, UniProt P05979); test: Inhibition of prostaglandin G/H synthase-1 (conversion of [14C]arachidonic acid to products); type: biochemical; details: enzyme purified from ram seminal vesicles, 15 min preincubation, pH 7.4, room temperature
T2 construct: purified from ram seminal vesicles; from tissue; host or cells: ram seminal vesicles
T2 sequence (P05979 25-600): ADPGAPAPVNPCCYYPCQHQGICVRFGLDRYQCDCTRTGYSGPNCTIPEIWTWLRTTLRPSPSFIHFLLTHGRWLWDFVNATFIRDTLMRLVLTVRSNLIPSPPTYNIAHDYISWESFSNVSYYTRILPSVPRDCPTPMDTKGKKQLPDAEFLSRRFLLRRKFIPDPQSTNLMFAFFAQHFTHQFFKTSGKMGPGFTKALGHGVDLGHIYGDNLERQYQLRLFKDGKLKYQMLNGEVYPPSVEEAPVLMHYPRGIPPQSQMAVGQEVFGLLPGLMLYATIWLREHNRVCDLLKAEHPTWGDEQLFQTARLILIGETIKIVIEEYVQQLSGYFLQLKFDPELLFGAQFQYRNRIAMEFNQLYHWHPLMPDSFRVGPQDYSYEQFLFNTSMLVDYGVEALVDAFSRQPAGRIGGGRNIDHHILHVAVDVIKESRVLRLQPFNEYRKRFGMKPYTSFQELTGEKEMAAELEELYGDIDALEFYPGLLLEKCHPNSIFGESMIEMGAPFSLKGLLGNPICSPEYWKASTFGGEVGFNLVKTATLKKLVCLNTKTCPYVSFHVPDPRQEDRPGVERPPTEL
Description: as §1, §2, §3

[3] = pH 7.4, read-out: % Inhibition of PGHS-2 at 10 μM, 10 μM
[4] = pH 7.4, read-out: % Inhibition of PGHS-2 at 100 μM, 100 μM
[5] = pH 7.4, read-out: % Inhibition of PGHS-1 at 10 μM, 10 μM
[6] = pH 7.4, read-out: % Inhibition of PGHS-1 at 100 μM, 100 μM
[7] = pH 7.4, 10 μM, read-out: % Inhibition of PGHS-2 at 10 μM
[8] = pH 7.4, 100 μM, read-out: % Inhibition of PGHS-2 at 100 μM
[9] = pH 7.4, 10 μM, read-out: % Inhibition of PGHS-1 at 10 μM
[10] = pH 7.4, 100 μM, read-out: % Inhibition of PGHS-1 at 100 μM

SMILES	inhibition at 10 µM [1, 3] [%]	inhibition at 100 µM [1, 4] [%]	inhibition at 10 µM [2, 5] [%]	inhibition at 100 µM [2, 6] [%]	inhibition at 10 µM [1, 7] [%]	inhibition at 100 µM [1, 8] [%]	inhibition at 10 µM [2, 9] [%]	inhibition at 100 µM [2, 10] [%]	% Inhibition of PGHS-2 at 10 μM [1] [%]	% Inhibition of PGHS-2 at 100 μM [1]	% Inhibition of PGHS-1 at 10 μM ([2]; 10 μM) [%]	% Inhibition of PGHS-1 at 100 μM [2] [%]
COC(=O)CSC(c1ccc(C)cc1)c1ccc(C)cc1 [Example 6, Methyl [[bis-(4-methylphenyl)methyl]thio]acetate]	11	52	< 10	< 10	–	–	–	–	–	–	–	–
COC(=O)CSC1c2ccccc2-c2ccccc21 [Example 10, Methyl (9-fluorenylthio)acetate]	–	–	–	–	30	77	< 10	18	–	–	–	–
COC(=O)CSC(c1ccc(N(C)C)cc1)c1ccc(N(C)C)cc1 [Example 4, Methyl [[bis-(4-dimethylaminophenyl)methyl]thio]acetate]	–	–	–	–	86	96	42	68	92	99% and 92%	31	72
COC(=O)CSC(c1ccccc1)(c1ccccc1)c1ccccc1 [Example 11, Methyl [(triphenylmethyl)thio]acetate]	–	–	–	–	29	62	< 10	10	–	–	–	–
COC(=O)CSC(c1ccc(OC)cc1)(c1ccc(OC)cc1)c1ccc(OC)cc1 [Example 12, Methyl [[(tris-4-methoxyphenyl)methyl]thio]acetate]	–	–	–	–	79	80	–	32	83	86%	–	17
COC(=O)CSC(c1ccc(F)cc1)c1ccc(F)cc1 [Example 5, Methyl [[bis-(4-fluorophenyl)methyl]thio]acetate]	–	52	< 10	< 10	–	–	–	–	–	40%	–	–
COC(=O)CSC1c2ccccc2Oc2ccccc21 [Example 16, Methyl (xanthen-9-yl-thio)acetate]	–	–	–	–	41	78	< 10	–	50	85%	–	–
COC(=O)CSC1(c2ccccc2)c2ccccc2-c2ccccc21 [Example 14, Methyl (9-phenylfluoren-9-yl-thio)acetate]	–	–	–	–	14	50	< 10	< 10	–	–	–	–
COC(=O)CSC(c1ccc(OC)cc1)c1ccc(OC)cc1 [Example 2, Methyl [[bis-(4-methoxyphenyl)methyl]thio]acetate]	23	79	< 10	< 10	–	–	–	–	34	74%	–	13
COC(=O)CSC(c1ccccc1OC)c1ccccc1OC [Example 8, Methyl [[bis-(2-methoxyphenyl)methyl]thio]acetate]	14	77	–	–	–	–	–	–	–	–	–	–
COC(=O)CSC(c1ccccc1Cl)c1ccccc1Cl [Example 7, Methyl [[bis-(2-chlorophenyl)methyl]thio]acetate]	< 10	37	< 10	< 10	–	–	–	–	–	–	–	–
COC(=O)CSC(c1cccs1)c1cccs1 [Example 9, Methyl [[bis-(2-thienyl)methyl]thio]acetate]	–	–	–	–	< 10	33	< 10	< 10	–	–	–	–
COC(=O)CSC(c1ccc(Cl)cc1)c1ccc(Cl)cc1 [Example 3, Methyl [[bis-(4-chlorophenyl)methyl]thio]acetate]	–	45	–	–	–	–	–	–	–	46%	–	–
COC(=O)CSC(c1ccccc1)c1ccccc1 [Example 1, Methyl [(diphenylmethyl)thio]acetate]	56	84	20	42	–	–	–	–	–	–	–	–
COC(=O)CSC1c2ccccc2CCc2ccccc21 [Example 17, Methyl (10, 11-dihydro-5H-dibenzo[a,d]cyclohepten-5-yl-thio)acetate]	–	–	–	–	8	17	< 10	< 10	–	–	–	–
COC(=O)CSC(c1ccccc1)(c1ccc(OC)cc1)c1ccc(OC)cc1 [Example 13, Methyl [[(bis-4-methoxyphenyl)phenylmethyl]thio]acetate]	–	–	–	–	41	49	< 10	< 10	–	–	–	–
COC(=O)CSC1c2ccccc2C=Cc2ccccc21 [Example 15, Methyl (5H-dibenzo[a,d]cyclohepten-5-yl-thio)acetate]	–	–	–	–	< 10	31	< 10	< 10	–	–	–	–
